Source: publication PMC7265341, “Quantifying CDK inhibitor selectivity in live cells” (Nature Communications, 2020)
Read-outs that look alike come from different tables or passages of the source.

Tests used:
CDK1/Cyclin E1 = CDK1/Cyclin E1 (Homo sapiens, UniProt P06493); assay: NanoBRET live-cell target engagement, CDK1-NanoLuc/Cyclin E1 in HEK-293; format: binding; settings: CDK1/E1, read-out: Inhibition at 10µM (%)
CDK2/Cyclin E1 = CDK2/Cyclin E1 (Homo sapiens, UniProt P24941); assay: NanoBRET live-cell target engagement, CDK2-NanoLuc/Cyclin E1 in HEK-293; format: binding; settings: CDK2/E1, read-out: Inhibition at 10µM (%)
CDK4/Cyclin D1 = CDK4/Cyclin D1 (Homo sapiens, UniProt P11802); assay: NanoBRET live-cell target engagement, NanoLuc-CDK4/Cyclin D1 in HEK-293; format: binding; settings: CDK4/D1, read-out: Inhibition at 10µM (%)
CDK5/CDK5R1 = CDK5/CDK5R1 (Homo sapiens, UniProt Q00535); assay: NanoBRET live-cell target engagement, CDK5-NanoLuc/CDK5R1 in HEK-293; format: binding; settings: CDK5/CDK5R1, read-out: Inhibition at 10µM (%)
CDK6/Cyclin D1 = CDK6/Cyclin D1 (Homo sapiens, UniProt Q00534); assay: NanoBRET live-cell target engagement, NanoLuc-CDK6/Cyclin D1 in HEK-293; format: binding; settings: CDK6/D1, read-out: Inhibition at 10µM (%)
CDK8/Cyclin C = CDK8/Cyclin C (Homo sapiens, UniProt P49336); assay: NanoBRET live-cell target engagement, NanoLuc-CDK8/Cyclin C in HEK-293; format: binding; settings: CDK8/C, read-out: Inhibition at 10µM (%)
CDK9/Cyclin K = CDK9/Cyclin K (Homo sapiens, UniProt P50750); assay: NanoBRET live-cell target engagement, NanoLuc-CDK9/Cyclin K in HEK-293; format: binding; settings: CDK9/K, read-out: Inhibition at 10µM (%)
CDK11A/Cyclin L2 = biological target: T1, CDK11A/Cyclin L2 (Homo sapiens, UniProt Q9UQ88); assay: NanoBRET live-cell target engagement, CDK11A-NanoLuc/Cyclin L2 in HEK-293; format: binding; settings: CDK11a/L2, read-out: Inhibition at 10µM (%)
T1 sequence (Q9UQ88 1-783): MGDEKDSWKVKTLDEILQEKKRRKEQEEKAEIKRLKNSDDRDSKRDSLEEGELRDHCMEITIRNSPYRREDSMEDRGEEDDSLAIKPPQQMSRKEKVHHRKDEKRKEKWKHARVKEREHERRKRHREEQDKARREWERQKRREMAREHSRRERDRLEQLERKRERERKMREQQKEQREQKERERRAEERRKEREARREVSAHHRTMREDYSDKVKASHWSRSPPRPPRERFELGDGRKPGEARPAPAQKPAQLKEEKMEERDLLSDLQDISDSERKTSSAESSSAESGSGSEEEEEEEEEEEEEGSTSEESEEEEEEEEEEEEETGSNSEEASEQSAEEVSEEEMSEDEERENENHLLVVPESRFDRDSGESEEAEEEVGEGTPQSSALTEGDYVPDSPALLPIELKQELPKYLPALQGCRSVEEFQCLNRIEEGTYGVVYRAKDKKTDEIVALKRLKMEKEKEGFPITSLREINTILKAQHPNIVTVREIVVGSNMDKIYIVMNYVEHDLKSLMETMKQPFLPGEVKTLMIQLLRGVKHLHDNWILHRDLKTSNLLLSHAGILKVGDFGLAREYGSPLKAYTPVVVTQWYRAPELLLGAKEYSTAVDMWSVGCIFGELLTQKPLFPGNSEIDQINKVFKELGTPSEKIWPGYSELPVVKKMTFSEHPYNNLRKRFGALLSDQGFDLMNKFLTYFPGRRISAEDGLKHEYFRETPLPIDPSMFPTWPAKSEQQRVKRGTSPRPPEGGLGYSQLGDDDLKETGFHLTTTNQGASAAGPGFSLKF

CDK11B/Cyclin L2 = CDK11B/Cyclin L2 (Homo sapiens, UniProt P21127); assay: NanoBRET live-cell target engagement, CDK11B-NanoLuc/Cyclin L2 in HEK-293; format: binding; settings: CDK11b/L2, read-out: Inhibition at 10µM (%)
CDK12/Cyclin K = CDK12/Cyclin K (Homo sapiens, UniProt Q9NYV4); assay: NanoBRET live-cell target engagement, CDK12-NanoLuc/Cyclin K in HEK-293; format: binding; settings: for inhibition at 10 µM: CDK12/K, read-out: Inhibition at 10µM (%)
CDK13/Cyclin K = CDK13/Cyclin K (Homo sapiens, UniProt Q14004); assay: NanoBRET live-cell target engagement, CDK13-NanoLuc/Cyclin K in HEK-293; format: binding; settings: for inhibition at 10 µM: CDK13/K, read-out: Inhibition at 10µM (%)
CDK20/Cyclin H = CDK20/Cyclin H (Homo sapiens, UniProt Q8IZL9); assay: NanoBRET live-cell target engagement, NanoLuc-CDK20/Cyclin H in HEK-293; format: binding; settings: CDK20/H, read-out: Inhibition at 10µM (%)
CDK19/Cyclin C = CDK19/Cyclin C (Homo sapiens, UniProt Q9BWU1); assay: NanoBRET live-cell target engagement, NanoLuc-CDK19/Cyclin C in HEK-293; settings: for inhibition at 10 µM: read-out: Inhibition at 10µM (%), CDK19/C
CDK10/Cyclin L2 = CDK10/Cyclin L2 (Homo sapiens, UniProt Q15131); assay: NanoBRET live-cell target engagement, CDK10-NanoLuc/Cyclin L2 in HEK-293; settings: read-out: Inhibition at 10µM (%), CDK10/L2
Sequence of CDK10/Cyclin L2 (Q15131 whole entry): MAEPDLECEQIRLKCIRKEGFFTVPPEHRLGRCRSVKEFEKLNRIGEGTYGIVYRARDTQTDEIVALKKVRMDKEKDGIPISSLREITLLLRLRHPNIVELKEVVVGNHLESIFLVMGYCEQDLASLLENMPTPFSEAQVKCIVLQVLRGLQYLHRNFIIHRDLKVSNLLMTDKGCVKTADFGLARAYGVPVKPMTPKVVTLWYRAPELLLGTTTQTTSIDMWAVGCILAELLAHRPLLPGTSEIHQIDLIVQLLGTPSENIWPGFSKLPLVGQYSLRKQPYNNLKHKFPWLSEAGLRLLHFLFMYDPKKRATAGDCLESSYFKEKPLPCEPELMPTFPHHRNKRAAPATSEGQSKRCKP

Sequence of CDK8/Cyclin C (P49336 whole entry): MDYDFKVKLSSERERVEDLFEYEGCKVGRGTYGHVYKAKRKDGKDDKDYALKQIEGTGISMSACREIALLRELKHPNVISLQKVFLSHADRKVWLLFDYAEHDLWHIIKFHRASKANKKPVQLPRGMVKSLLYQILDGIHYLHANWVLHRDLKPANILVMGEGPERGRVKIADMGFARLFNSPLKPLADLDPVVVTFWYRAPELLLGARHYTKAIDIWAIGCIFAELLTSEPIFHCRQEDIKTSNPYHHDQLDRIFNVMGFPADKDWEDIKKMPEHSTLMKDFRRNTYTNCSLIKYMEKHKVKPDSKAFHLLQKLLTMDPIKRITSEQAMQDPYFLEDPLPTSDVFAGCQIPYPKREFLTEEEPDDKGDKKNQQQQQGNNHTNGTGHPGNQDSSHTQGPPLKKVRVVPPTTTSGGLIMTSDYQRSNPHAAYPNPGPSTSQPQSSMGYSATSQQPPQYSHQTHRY
Sequence of CDK8/Cyclin C (P24863 whole entry partner): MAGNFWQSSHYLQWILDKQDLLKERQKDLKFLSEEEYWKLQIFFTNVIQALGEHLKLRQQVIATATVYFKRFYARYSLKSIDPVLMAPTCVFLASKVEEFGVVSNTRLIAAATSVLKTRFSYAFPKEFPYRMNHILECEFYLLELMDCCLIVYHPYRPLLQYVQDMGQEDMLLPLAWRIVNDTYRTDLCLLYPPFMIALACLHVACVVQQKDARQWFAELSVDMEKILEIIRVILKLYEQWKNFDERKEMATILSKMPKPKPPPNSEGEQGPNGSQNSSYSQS
Sequence of CDK11B/Cyclin L2 (P21127 1-782 isoform P21127-2): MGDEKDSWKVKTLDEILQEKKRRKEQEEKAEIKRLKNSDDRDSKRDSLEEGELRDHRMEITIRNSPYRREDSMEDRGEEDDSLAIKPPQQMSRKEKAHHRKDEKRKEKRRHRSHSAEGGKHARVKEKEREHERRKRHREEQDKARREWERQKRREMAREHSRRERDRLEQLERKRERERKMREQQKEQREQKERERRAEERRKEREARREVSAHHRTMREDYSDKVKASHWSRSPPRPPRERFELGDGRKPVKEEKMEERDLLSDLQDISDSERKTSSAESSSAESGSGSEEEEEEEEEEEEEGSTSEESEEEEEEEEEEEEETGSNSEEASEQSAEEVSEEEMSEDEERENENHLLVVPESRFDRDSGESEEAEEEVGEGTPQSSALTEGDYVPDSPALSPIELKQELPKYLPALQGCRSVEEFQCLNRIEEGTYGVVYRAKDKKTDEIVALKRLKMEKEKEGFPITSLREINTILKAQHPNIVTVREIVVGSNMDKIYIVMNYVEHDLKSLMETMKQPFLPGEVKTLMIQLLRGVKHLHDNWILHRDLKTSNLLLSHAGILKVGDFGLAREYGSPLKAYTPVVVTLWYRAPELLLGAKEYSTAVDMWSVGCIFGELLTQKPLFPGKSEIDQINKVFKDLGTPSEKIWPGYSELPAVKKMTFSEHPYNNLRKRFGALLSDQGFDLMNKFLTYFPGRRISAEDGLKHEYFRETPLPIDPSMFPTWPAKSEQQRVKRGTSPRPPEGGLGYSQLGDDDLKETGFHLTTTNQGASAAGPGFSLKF
Sequence of CDK4/Cyclin D1 (P11802 whole entry): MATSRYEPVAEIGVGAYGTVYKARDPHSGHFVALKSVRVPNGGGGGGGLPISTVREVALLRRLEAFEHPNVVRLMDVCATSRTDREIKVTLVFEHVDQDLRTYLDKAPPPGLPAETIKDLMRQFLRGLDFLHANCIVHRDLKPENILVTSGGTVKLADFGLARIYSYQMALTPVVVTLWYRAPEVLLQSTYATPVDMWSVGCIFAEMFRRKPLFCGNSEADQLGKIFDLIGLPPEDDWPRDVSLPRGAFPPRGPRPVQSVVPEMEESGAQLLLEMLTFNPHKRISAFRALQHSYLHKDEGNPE
Sequence of CDK4/Cyclin D1 (P24385 whole entry partner): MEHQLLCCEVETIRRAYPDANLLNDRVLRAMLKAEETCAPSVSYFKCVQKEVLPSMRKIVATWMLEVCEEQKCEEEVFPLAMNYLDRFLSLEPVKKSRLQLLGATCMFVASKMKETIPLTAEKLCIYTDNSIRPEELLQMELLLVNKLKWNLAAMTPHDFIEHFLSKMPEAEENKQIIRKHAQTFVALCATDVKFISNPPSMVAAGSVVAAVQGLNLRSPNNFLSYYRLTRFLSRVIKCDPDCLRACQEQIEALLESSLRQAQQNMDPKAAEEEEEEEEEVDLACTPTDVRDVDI
Sequence of CDK1/Cyclin E1 (P06493 whole entry): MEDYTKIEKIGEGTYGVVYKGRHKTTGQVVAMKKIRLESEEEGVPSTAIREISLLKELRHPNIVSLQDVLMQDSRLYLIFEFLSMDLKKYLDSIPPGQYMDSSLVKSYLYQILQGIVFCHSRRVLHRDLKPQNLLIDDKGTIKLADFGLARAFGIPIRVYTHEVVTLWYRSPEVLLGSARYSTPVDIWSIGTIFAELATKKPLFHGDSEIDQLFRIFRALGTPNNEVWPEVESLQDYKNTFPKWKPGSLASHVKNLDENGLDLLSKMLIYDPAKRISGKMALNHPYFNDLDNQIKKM
Sequence of CDK1/Cyclin E1 (P24864 whole entry partner): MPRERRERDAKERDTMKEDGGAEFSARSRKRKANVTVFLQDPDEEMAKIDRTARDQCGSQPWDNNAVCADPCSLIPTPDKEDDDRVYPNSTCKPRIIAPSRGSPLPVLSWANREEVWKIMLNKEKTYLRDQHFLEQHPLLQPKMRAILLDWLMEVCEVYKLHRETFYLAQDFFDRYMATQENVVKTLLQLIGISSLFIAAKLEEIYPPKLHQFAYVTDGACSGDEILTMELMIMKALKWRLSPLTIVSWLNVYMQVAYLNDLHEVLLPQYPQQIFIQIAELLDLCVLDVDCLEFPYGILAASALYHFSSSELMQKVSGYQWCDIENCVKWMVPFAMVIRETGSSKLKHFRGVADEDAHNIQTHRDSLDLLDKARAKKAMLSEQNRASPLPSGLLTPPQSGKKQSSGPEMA
Sequence of CDK9/Cyclin K (P50750 whole entry): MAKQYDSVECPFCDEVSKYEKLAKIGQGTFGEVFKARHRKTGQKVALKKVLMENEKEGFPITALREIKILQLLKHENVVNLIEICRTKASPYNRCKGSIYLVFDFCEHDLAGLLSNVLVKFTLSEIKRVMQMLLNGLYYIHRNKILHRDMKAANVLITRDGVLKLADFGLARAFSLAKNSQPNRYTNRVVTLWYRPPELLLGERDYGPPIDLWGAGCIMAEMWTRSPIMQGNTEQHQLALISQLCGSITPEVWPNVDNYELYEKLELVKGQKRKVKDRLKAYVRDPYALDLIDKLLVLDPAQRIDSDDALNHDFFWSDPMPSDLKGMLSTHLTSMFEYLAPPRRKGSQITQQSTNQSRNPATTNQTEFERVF
Sequence of CDK9/Cyclin K (O75909 whole entry partner): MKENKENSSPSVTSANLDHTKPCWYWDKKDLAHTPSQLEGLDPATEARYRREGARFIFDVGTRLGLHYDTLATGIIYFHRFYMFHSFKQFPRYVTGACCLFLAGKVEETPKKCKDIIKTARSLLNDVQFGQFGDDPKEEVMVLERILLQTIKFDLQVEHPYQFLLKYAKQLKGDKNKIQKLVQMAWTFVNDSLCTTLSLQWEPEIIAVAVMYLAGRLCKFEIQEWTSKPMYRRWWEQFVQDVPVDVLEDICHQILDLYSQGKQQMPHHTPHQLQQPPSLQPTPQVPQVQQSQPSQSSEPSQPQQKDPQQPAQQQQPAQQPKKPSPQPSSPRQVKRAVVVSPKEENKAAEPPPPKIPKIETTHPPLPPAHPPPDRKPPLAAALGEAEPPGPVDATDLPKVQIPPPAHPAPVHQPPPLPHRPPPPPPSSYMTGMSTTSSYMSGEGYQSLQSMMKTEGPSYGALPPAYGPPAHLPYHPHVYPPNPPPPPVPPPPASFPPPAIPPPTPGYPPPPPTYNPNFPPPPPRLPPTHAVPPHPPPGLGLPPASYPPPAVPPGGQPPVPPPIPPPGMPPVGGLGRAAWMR
Sequence of CDK5/CDK5R1 (Q00535 whole entry): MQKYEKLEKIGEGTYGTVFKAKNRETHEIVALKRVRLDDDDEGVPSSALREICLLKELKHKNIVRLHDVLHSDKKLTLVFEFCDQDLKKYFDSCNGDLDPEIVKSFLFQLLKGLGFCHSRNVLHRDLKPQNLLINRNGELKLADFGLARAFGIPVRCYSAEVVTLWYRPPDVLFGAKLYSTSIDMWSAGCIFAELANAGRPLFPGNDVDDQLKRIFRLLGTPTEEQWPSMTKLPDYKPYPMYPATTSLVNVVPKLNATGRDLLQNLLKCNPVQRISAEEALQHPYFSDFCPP
Sequence of CDK5/CDK5R1 (Q15078 whole entry partner): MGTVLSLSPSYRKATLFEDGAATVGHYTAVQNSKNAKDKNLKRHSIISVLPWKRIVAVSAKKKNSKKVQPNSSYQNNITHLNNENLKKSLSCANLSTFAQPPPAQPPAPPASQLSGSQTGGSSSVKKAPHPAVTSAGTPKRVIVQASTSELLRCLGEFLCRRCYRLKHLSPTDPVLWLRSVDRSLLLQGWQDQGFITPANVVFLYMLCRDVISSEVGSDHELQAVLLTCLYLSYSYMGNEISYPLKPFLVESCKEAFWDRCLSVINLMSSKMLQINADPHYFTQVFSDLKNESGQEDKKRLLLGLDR

inhibition at 10 µM (CDK1/Cyclin E1; average): 72.2%
inhibition at 10 µM (CDK1/Cyclin E1; experiment 1): 65.7%
inhibition at 10 µM (CDK1/Cyclin E1; experiment 2): 78.8%
inhibition at 10 µM (CDK2/Cyclin E1; average): 75%
inhibition at 10 µM (CDK2/Cyclin E1; experiment 1): 74.5%
inhibition at 10 µM (CDK2/Cyclin E1; experiment 2): 75.4%
inhibition at 10 µM (CDK4/Cyclin D1; average): 90.8%
inhibition at 10 µM (CDK4/Cyclin D1; experiment 1): 88.6%
inhibition at 10 µM (CDK4/Cyclin D1; experiment 2): 93%
inhibition at 10 µM (CDK5/CDK5R1; average): 83.1%
inhibition at 10 µM (CDK5/CDK5R1; experiment 1): 85%
inhibition at 10 µM (CDK5/CDK5R1; experiment 2): 81.1%
inhibition at 10 µM (CDK6/Cyclin D1; average): 86.6%
inhibition at 10 µM (CDK6/Cyclin D1; experiment 1): 83.3%
inhibition at 10 µM (CDK6/Cyclin D1; experiment 2): 89.9%
inhibition at 10 µM (CDK8/Cyclin C; average): 95.7%
inhibition at 10 µM (CDK8/Cyclin C; experiment 1): 96.6%
inhibition at 10 µM (CDK8/Cyclin C; experiment 2): 94.9%
inhibition at 10 µM (CDK9/Cyclin K; average): 97.8%
inhibition at 10 µM (CDK9/Cyclin K; experiment 1): 97.5%
inhibition at 10 µM (CDK9/Cyclin K; experiment 2): 98%
inhibition at 10 µM (CDK11A/Cyclin L2; average): 27.7%
inhibition at 10 µM (CDK11A/Cyclin L2; experiment 1): 30.2%
inhibition at 10 µM (CDK11A/Cyclin L2; experiment 2): 25.2%
inhibition at 10 µM (CDK11B/Cyclin L2; average): 47.4%
inhibition at 10 µM (CDK11B/Cyclin L2; experiment 1): 40.9%
inhibition at 10 µM (CDK11B/Cyclin L2; experiment 2): 54%
inhibition at 10 µM (CDK12/Cyclin K; average): 48.6%
inhibition at 10 µM (CDK12/Cyclin K; experiment 1): 51.7%
inhibition at 10 µM (CDK12/Cyclin K; experiment 2): 45.6%
receptor occupancy at 10 µM (CDK12/Cyclin K; primary screen, live HEK-293, read-out: CDK12 occupancy at 10 µM): ~50%
inhibition at 10 µM (CDK13/Cyclin K; average): 28%
inhibition at 10 µM (CDK13/Cyclin K; experiment 1): 33.4%
inhibition at 10 µM (CDK13/Cyclin K; experiment 2): 22.5%
receptor occupancy at 10 µM (CDK13/Cyclin K; primary screen, live HEK-293): ~50%
inhibition at 10 µM (CDK20/Cyclin H; experiment 1): 6.3%
inhibition at 10 µM (CDK20/Cyclin H; experiment 2): 6.5%
IC50 (CDK19/Cyclin C; IC50 (nM), CDK19/C, experiment 1): 19 nM
IC50 (CDK19/Cyclin C; IC50 (nM), CDK19/C, experiment 2): 18 nM
IC50 (CDK19/Cyclin C; IC50 (nM), CDK19/Y (so in the source), average (± SEM where n=3)): 19 nM
IC50 (CDK19/Cyclin C; IC50 for CDK/cyclin complexes, CDK19/C, live HEK-293, 2 h, mean ± S.E.M. (n=3) or mean (n=2)): 19 nM
inhibition at 10 µM (CDK19/Cyclin C; average): 95.8%
inhibition at 10 µM (CDK19/Cyclin C; experiment 1): 98%
inhibition at 10 µM (CDK19/Cyclin C; experiment 2): 93.5%
inhibition at 10 µM (CDK10/Cyclin L2; average): 38.5%
inhibition at 10 µM (CDK10/Cyclin L2; experiment 1): 45.2%
inhibition at 10 µM (CDK10/Cyclin L2; experiment 2): 31.9%
Compound: CN1CC[C@H](c2c(O)cc(O)c3c(=O)cc(-c4ccccc4Cl)oc23)[C@H](O)C1 [Flavopiridol]
